Experimental data: PubChem BioAssay (NCI)
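These data come from cells grown in 96-well plates and exposed to compound for 48 hours at five concentrations. At the TGI there is no net growth.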

Tests used:
Experiment in all cases: inhibition of tumour cell growth, NCI panel, 48 h
SNB-75 CNS = system: SNB-75 CNS
KM12 colon = system: KM12 colon
MDA-MB-435 = system: MDA-MB-435
IGROV1 ovarian = system: IGROV1 ovarian
MDA-N = system: MDA-N
SK-OV-3 ovarian = system: SK-OV-3 ovarian
K-562 leukemia = system: K-562 leukemia
MDA-MB-231 breast = system: MDA-MB-231 breast
A549 NSCLC = system: A549 NSCLC
OVCAR-4 ovarian = system: OVCAR-4 ovarian
UO-31 renal = system: UO-31 renal
M14 melanoma = system: M14 melanoma
HS 578T breast = system: HS 578T breast
HL-60(TB) leukemia = system: HL-60(TB) leukemia
SF-268 CNS = system: SF-268 CNS
OVCAR-3 ovarian = system: OVCAR-3 ovarian
T-47D breast = system: T-47D breast
NCI-H226 lung = system: NCI-H226 lung
786-0 renal = system: 786-0 renal
PC-3 prostate = system: PC-3 prostate
U251 CNS = system: U251 CNS
NCI-H522 lung = system: NCI-H522 lung
A498 renal = system: A498 renal
SW-620 colon = system: SW-620 colon
HOP-62 NSCLC = system: HOP-62 NSCLC
HCT-15 colon = system: HCT-15 colon
NCI-H460 lung = system: NCI-H460 lung
NCI/ADR-RES ovarian = system: NCI/ADR-RES ovarian
ACHN renal = system: ACHN renal
RXF 393 renal = system: RXF 393 renal
SR leukemia = system: SR leukemia
SF-539 CNS = system: SF-539 CNS
SN12C renal = system: SN12C renal
UACC-62 melanoma = system: UACC-62 melanoma
LOX IMVI melanoma = system: LOX IMVI melanoma
HCC-2998 colon = system: HCC-2998 colon
HT29 colon = system: HT29 colon
SNB-19 CNS = system: SNB-19 CNS
MCF7 breast = system: MCF7 breast
MOLT-4 leukemia = system: MOLT-4 leukemia
EKVX NSCLC = system: EKVX NSCLC
HCT-116 colon = system: HCT-116 colon
COLO 205 colon = system: COLO 205 colon
SK-MEL-28 melanoma = system: SK-MEL-28 melanoma
CAKI-1 renal = system: CAKI-1 renal
UACC-257 melanoma = system: UACC-257 melanoma
CCRF-CEM leukemia = system: CCRF-CEM leukemia
SF-295 CNS = system: SF-295 CNS
TK-10 renal = system: TK-10 renal
SK-MEL-5 melanoma = system: SK-MEL-5 melanoma
HOP-92 NSCLC = system: HOP-92 NSCLC
MALME-3M melanoma = system: MALME-3M melanoma
DU-145 prostate = system: DU-145 prostate
NCI-H23 lung = system: NCI-H23 lung
OVCAR-8 ovarian = system: OVCAR-8 ovarian
SK-MEL-2 melanoma = system: SK-MEL-2 melanoma
RPMI-8226 leukemia = system: RPMI-8226 leukemia
BT-549 breast = system: BT-549 breast
OVCAR-5 ovarian = system: OVCAR-5 ovarian

C/C(CC(O)(C(F)(F)F)C(F)(F)F)=N\NC(N)=O
TGI (SNB-75 CNS): > 10 µM
TGI (KM12 colon): > 10 µM
TGI (MDA-MB-435): > 10 µM
TGI (IGROV1 ovarian): > 10 µM
TGI (MDA-N): > 10 µM
TGI (SK-OV-3 ovarian): > 10 µM
TGI (K-562 leukemia): > 10 µM
TGI (MDA-MB-231 breast): > 10 µM
TGI (A549 NSCLC): > 10 µM
TGI (OVCAR-4 ovarian): > 10 µM
TGI (UO-31 renal): > 10 µM
TGI (M14 melanoma): > 10 µM
TGI (HS 578T breast): > 10 µM
TGI (HL-60(TB) leukemia): > 10 µM
TGI (SF-268 CNS): > 10 µM
TGI (OVCAR-3 ovarian): > 10 µM
TGI (T-47D breast): > 10 µM
TGI (NCI-H226 lung): > 10 µM
TGI (786-0 renal): > 10 µM
TGI (PC-3 prostate): > 10 µM
TGI (U251 CNS): > 10 µM
TGI (NCI-H522 lung): > 10 µM
TGI (A498 renal): > 10 µM
TGI (SW-620 colon): > 10 µM
TGI (HOP-62 NSCLC): > 10 µM
TGI (HCT-15 colon): > 10 µM
TGI (NCI-H460 lung): > 10 µM
TGI (NCI/ADR-RES ovarian): > 10 µM
TGI (ACHN renal): > 10 µM
TGI (RXF 393 renal): > 10 µM
TGI (SR leukemia): > 10 µM
TGI (SF-539 CNS): > 10 µM
TGI (SN12C renal): > 10 µM
TGI (UACC-62 melanoma): > 10 µM
TGI (LOX IMVI melanoma): > 10 µM
TGI (HCC-2998 colon): > 10 µM
TGI (HT29 colon): > 10 µM
TGI (SNB-19 CNS): > 10 µM
TGI (MCF7 breast): > 10 µM
TGI (MOLT-4 leukemia): > 10 µM
TGI (EKVX NSCLC): > 10 µM
TGI (HCT-116 colon): > 10 µM
TGI (COLO 205 colon): > 10 µM
TGI (SK-MEL-28 melanoma): > 10 µM
TGI (CAKI-1 renal): > 10 µM
TGI (UACC-257 melanoma): > 10 µM
TGI (CCRF-CEM leukemia): > 10 µM
TGI (SF-295 CNS): > 10 µM
TGI (TK-10 renal): > 10 µM
TGI (SK-MEL-5 melanoma): > 10 µM
TGI (HOP-92 NSCLC): > 10 µM
TGI (MALME-3M melanoma): > 10 µM
TGI (DU-145 prostate): > 10 µM
TGI (NCI-H23 lung): > 10 µM
TGI (OVCAR-8 ovarian): > 10 µM
TGI (SK-MEL-2 melanoma): > 10 µM
TGI (RPMI-8226 leukemia): > 10 µM

COc1cc2c(c3c1c(=O)c1ccccc1n3C)C=CC1(CCCC1)O2
TGI (SNB-75 CNS): 24.8 µM
TGI (KM12 colon): 25.3 µM
TGI (MDA-MB-435): 35 µM
TGI (IGROV1 ovarian): 28.4 µM
TGI (MDA-N): 29.3 µM
TGI (SK-OV-3 ovarian): 38.4 µM
TGI (K-562 leukemia): 21.7 µM
TGI (MDA-MB-231 breast): 38.2 µM
TGI (A549 NSCLC): 47.1 µM
TGI (OVCAR-4 ovarian): 25.8 µM
TGI (M14 melanoma): 29.1 µM
TGI (HS 578T breast): 9.75 µM
TGI (HL-60(TB) leukemia): 26.1 µM
TGI (SF-268 CNS): 46.8 µM
TGI (OVCAR-3 ovarian): 38.1 µM
TGI (NCI-H226 lung): 37.1 µM
TGI (786-0 renal): 25.1 µM
TGI (U251 CNS): 31.9 µM
TGI (NCI-H522 lung): 33.5 µM
TGI (A498 renal): 31.9 µM
TGI (SW-620 colon): 37.2 µM
TGI (HOP-62 NSCLC): 28.7 µM
TGI (HCT-15 colon): 35.5 µM
TGI (NCI-H460 lung): 24.6 µM
TGI (NCI/ADR-RES ovarian): > 100 µM
TGI (ACHN renal): 32.7 µM
TGI (RXF 393 renal): 22.8 µM
TGI (SR leukemia): 52.8 µM
TGI (SF-539 CNS): 17.3 µM
TGI (SN12C renal): 37.2 µM
TGI (UACC-62 melanoma): 29.1 µM
TGI (LOX IMVI melanoma): 27.3 µM
TGI (HCC-2998 colon): 37.7 µM
TGI (HT29 colon): 19.7 µM
TGI (SNB-19 CNS): 35.2 µM
TGI (MCF7 breast): 39.4 µM
TGI (MOLT-4 leukemia): > 100 µM
TGI (EKVX NSCLC): 26.4 µM
TGI (HCT-116 colon): 28.6 µM
TGI (BT-549 breast): 25.5 µM
TGI (COLO 205 colon): 27.6 µM
TGI (SK-MEL-28 melanoma): 28 µM
TGI (CAKI-1 renal): 6.33 µM
TGI (OVCAR-5 ovarian): 27 µM
TGI (UACC-257 melanoma): 31 µM
TGI (CCRF-CEM leukemia): 53.9 µM
TGI (SF-295 CNS): 12.1 µM
TGI (TK-10 renal): 33.7 µM
TGI (SK-MEL-5 melanoma): 25.6 µM
TGI (HOP-92 NSCLC): 31.7 µM
TGI (MALME-3M melanoma): 37.8 µM
TGI (DU-145 prostate): 31.6 µM
TGI (NCI-H23 lung): 28.6 µM
TGI (OVCAR-8 ovarian): 57.8 µM
TGI (SK-MEL-2 melanoma): 33.6 µM
TGI (RPMI-8226 leukemia): 5.48 µM
